From US20110190129A1, “IMPROVEMENTS IN OR RELATING TO ORGANIC COMPOUNDS” (SYNGENTA LIMITED, priority 2007, published 2011)
Like-named read-outs stand apart in the source and are kept apart here. Marks after values point to notes of the source that are not given here.

Assay: Solubility of pesticide samples in solvents (equilibration, 25 C, HPLC analysis)
Assay type: physicochemical
Procedure: The following general method is used to measure the solubility of pesticide samples in solvents. A 2 ml aliquot of solvent is added to a 5 ml volume glass vial. Pesticide is added such that half of the volume of the liquid is filled. The sample is shaken for one minute and left to stand for 24 hours. Samples which have dissolved are refilled with more of the pesticide, shaken and left for a further 24 hours. This process is continued until the samples have equilibrated for three days without the need for further pesticide addition. The samples are then placed in a temperature controlled oven at 25 C for one week prior to analysis by high pressure liquid chromatography. All samples are filtered and centrifuged prior to chromatographic analysis.

[1] = solvent Solvesso 200ND, 25 C, Table 1
[2] = solvent acetophenone, 25 C, Table 1
[3] = solvent dimethyl lactamide, 25 C, Table 1
[4] = comparison in words, dimethyl lactamide versus the other two solvents

CCNc1nc(NC(C)C)nc(SC)n1 [Ametryn]
Solubility in Solvesso 200ND (1 week): 29.3 % w/w
Solubility in acetophenone (1 week): 47.4 % w/w
Solubility in dimethyl lactamide (1 week): 53.0 % w/w

CNC(=O)c1cc(Cl)cc(C)c1NC(=O)c1cc(Br)nn1-c1ncccc1Cl [Rynaxypry]
Solubility in Solvesso 200ND [1]: 0.06 % w/w
Solubility in acetophenone [2]: 0.75 % w/w
Solubility in dimethyl lactamide [3]: 2.8 % w/w

CCO/N=C(\CC)C1=C(O)CC(c2c(C)cc(C)cc2C)CC1=O (stereo not drawn) [Tralkoxydim, tralkoxydim]
Solubility in acetophenone: 12.7 % w/w
Solubility in dimethyl lactamide: 3.2 % w/w
Solubility in dimethyl lactamide compared with Solvesso 200ND or acetophenone: lower

N#Cc1c[nH]cc1-c1cccc2c1OC(F)(F)O2 [Fludioxynil]
Solubility in dimethyl lactamide compared with Solvesso 200ND or acetophenone [4]: better
Solubility in Solvesso 200ND [1]: 0.3 % w/w
Solubility in acetophenone [2]: 8.5 % w/w
Solubility in dimethyl lactamide [3]: 30.1 % w/w

CC(C)C1C2CCC1c1c(NC(=O)c3cn(C)nc3C(F)F)cccc12 (stereo not drawn) [Compound of FIG. 2, 3-difluoromethyl-1-methyl-1H-pyrazole-4-carboxylic acid(9-isopropyl-1,2,3,4-tetrahydro-1,4-methano-naphthalen-5-yl)-amide]
Solubility in dimethyl lactamide compared with Solvesso 200ND or acetophenone [4]: better
Solubility in Solvesso 200ND [1]: 5.6 % w/w
Solubility in acetophenone [2]: 14.1 % w/w
Solubility in dimethyl lactamide [3]: 32.1 % w/w

CSc1nc(NC(C)C)nc(NC(C)C)n1 [Prometryn, prometryn]
Solubility in dimethyl lactamide compared with Solvesso 200ND or acetophenone: better
Solubility in Solvesso 200ND (1 week): 12 % w/w
Solubility in acetophenone (1 week): 19 % w/w
Solubility in dimethyl lactamide (1 week): 43 % w/w

N#Cc1c(Cl)c(Cl)c(Cl)c(C#N)c1Cl [Chlorothalonil, chlorothalonil]
Solubility in dimethyl lactamide compared with Solvesso 200ND or acetophenone [4]: lower

Fc1ccc([C@]2(Cn3cncn3)O[C@H]2c2ccccc2Cl)cc1 (racemic) [Epoxiconazole, epoxiconazole]
Solubility in Solvesso 200ND (1 week): 2.5 % w/w
Solubility in dimethyl lactamide (1 week): 8.0 % w/w

CN1COCN(Cc2cnc(Cl)s2)/C1=N\[N+](=O)[O-] [Thiamethoxam, thiamethoxam]
Solubility in dimethyl lactamide compared with Solvesso 200ND or acetophenone [4]: better
Solubility in Solvesso 200ND [1]: 0.2 % w/w
Solubility in acetophenone [2]: 5.0 % w/w
Solubility in dimethyl lactamide [3]: 9.0 % w/w

CN(C)C(=O)Nc1ccc(Cl)c(Cl)c1 [Diuron]
Solubility in Solvesso 200ND [1]: <0.2* % w/w
Solubility in acetophenone [2]: 4.8 % w/w
Solubility in dimethyl lactamide [3]: 11.0 % w/w

CCN(CC)C(=O)C(C)Oc1cccc2ccccc12 (stereo not drawn) [Napropamide, napropamide]
Solubility in Solvesso 200ND: 20.7
Solubility in acetophenone: 27.6 % w/w
Solubility in dimethyl lactamide: 19.2 % w/w
Solubility in dimethyl lactamide compared with Solvesso 200ND or acetophenone: lower

CCCCC(O)(Cn1cncn1)c1ccc(Cl)cc1Cl (stereo not drawn) [Hexaconazole, hexaconazole]
Solubility in dimethyl lactamide compared with Solvesso 200ND or acetophenone: better
Solubility in Solvesso 200ND (1 week): 4.4 % w/w
Solubility in acetophenone (1 week): 11.7 % w/w
Solubility in dimethyl lactamide (1 week): 18 % w/w
